Reference: the supplement of paper PMC10883282

Legend:
Experiment in all cases: relative viability vs DMSO control (72 h) (fraction); higher = more viable cells
HT1080 = tested on: HT1080
In short: (§1)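 Relative viability is percent growth read by ATPLite and averaged over up to triplicate wells. Sarcoma cells were seeded in 384-well plates to reach 80–90% confluence and given 2.5 µl of serially diluted compound after 24 h, from source plates of 10 mM to 0.0002 mM. Incubation lasted 72 h at 37 °C, 5% CO2, with 0.1% DMSO vehicle and a 5 µM positive control, and the data were rescaled so 1 equals full and 0 equals none.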

KHOS-240S = tested on: KHOS-240S
In short: as §1

RD-ES = tested on: RD-ES
In short: as §1

SW1353 = tested on: SW1353
In short: as §1

SW982 = tested on: SW982
In short: as §1

CO[C@H]1C[C@@H]2CC[C@@H](C)[C@@](O)(O2)C(=O)C(=O)N2CCCC[C@H]2C(=O)O[C@H]([C@H](C)C[C@@H]2CC[C@@H](OCCO)[C@H](OC)C2)CC(=O)[C@H](C)/C=C(\C)[C@@H](O)[C@@H](OC)C(=O)[C@H](C)C[C@H](C)/C=C/C=C/C=C/1C [Certican]
relative viability
Conditions | HT1080 | KHOS-240S | RD-ES | SW982 | SW1353
0.00017 µM | 1.04 | 1.05 | 0.967 | 1 | 0.915
0.00051 µM | 1.04 | 1.01 | 0.939 | 0.882 | 0.875
0.00152 µM | 1.09 | 0.935 | 0.843 | 0.79 | 0.855
0.00457 µM | 1.09 | 0.889 | 0.807 | 0.756 | 0.772
0.01372 µM | 1.08 | 0.851 | 0.772 | 0.728 | 0.76
0.04115 µM | 0.985 | 0.845 | 0.728 | 0.68 | 0.746
0.1235 µM | 0.998 | 0.815 | 0.676 | 0.679 | 0.708
0.3704 µM | 1.02 | 0.786 | 0.658 | 0.645 | 0.71
1.111 µM | 1.01 | 0.784 | 0.598 | 0.618 | 0.696
3.333 µM | 1.01 | 0.75 | 0.552 | 0.599 | 0.677
10 µM | 0.922 | 0.717 | 0.488 | 0.604 | 0.6966

Cc1ccc(Nc2nccc(N(C)c3ccc4c(C)n(C)nc4c3)n2)cc1S(N)(=O)=O [Pazopanib]
relative viability
Conditions | HT1080 | KHOS-240S | RD-ES | SW982 | SW1353
0.00017 µM | 1.03 | 1.03 | 0.95 | 1.04 | 0.962
0.00051 µM | 1.064 | 1.04 | 0.95 | 1.01 | 0.952
0.00152 µM | 1.04 | 1.05 | 0.968 | 1.03 | 0.94
0.00457 µM | 1.05 | 1.04 | 0.962 | 1.03 | 0.977
0.01372 µM | 1.045 | 1.03 | 0.985 | 1.05 | 0.96
0.04115 µM | 1.05 | 1.02 | 0.975 | 1.05 | 0.947
0.1235 µM | 1.03 | 0.975 | 0.96 | 1.03 | 0.946
0.3704 µM | 1.03 | 0.974 | 0.973 | 1.04 | 0.939
1.111 µM | 1.05 | 0.932 | 1 | 1.06 | 0.931
3.333 µM | 1.07 | 0.88 | 0.9311 | 1.016 | 0.89
10 µM | 1.07 | 0.621 | 0.727 | 0.729 | 0.8

CC1(C)CC=C(c2nc(C3CC(C)(C)OC(C)(C)C3)ccc2NC(=O)c2nc(C#N)c[nH]2)CC1 [Edicotinib]
relative viability
Conditions | HT1080 | KHOS-240S | RD-ES | SW982 | SW1353
0.00017 µM | 1.03 | 1.03 | 0.9975 | 1.05 | 0.973
0.00051 µM | 1.07 | 1.01 | 1.01 | 1.04 | 0.987
0.00152 µM | 1.03 | 1.02 | 1.02 | 1.07 | 0.958
0.00457 µM | 1.041 | 1.05 | 1.02 | 1.07 | 0.9936
0.01372 µM | 1.04 | 1.01 | 1.01 | 1.08 | 0.9624
0.04115 µM | 1.03 | 1.05 | 0.999 | 1.064 | 0.965
0.1235 µM | 1.037 | 1.05 | 1.021 | 1.05 | 0.96
0.3704 µM | 1.021 | 1.05 | 1.01 | 1.066 | 1.03
1.111 µM | 0.9787 | 1.118 | 1.01 | 1.07 | 1.09
3.333 µM | 1.019 | 1.06 | 0.987 | 1.07 | 1.08
10 µM | 0.993 | 0.841 | 0.968 | 1.07 | 1.098

CC(C)(C)c1nc(-c2cccc(NS(=O)(=O)c3c(F)cccc3F)c2F)c(-c2ccnc(N)n2)s1 [Dabrafenib]
relative viability
Conditions | HT1080 | KHOS-240S | RD-ES | SW982 | SW1353
0.00017 µM | 1.05 | 1.07 | 0.94 | 1 | 1.02
0.00051 µM | 1.09 | 1.06 | 0.924 | 0.988 | 1.01
0.00152 µM | 1.01 | 1.04 | 0.948 | 0.974 | 0.957
0.00457 µM | 1.07 | 1.03 | 0.94 | 0.886 | 0.959
0.01372 µM | 1.05 | 1.01 | 0.911 | 0.85 | 0.9603
0.04115 µM | 1.11 | 1 | 0.872 | 0.779 | 0.936
0.1235 µM | 1.13 | 1.03 | 0.838 | 0.701 | 0.898
0.3704 µM | 0.944 | 1.01 | 0.706 | 0.469 | 0.875
1.111 µM | 0.837 | 0.975 | 0.531 | 0.384 | 0.859
3.333 µM | 0.886 | 0.964 | 0.508 | 0.369 | 0.89
10 µM | 0.6761 | 0.854 | 0.557 | 0.356 | 0.988

Cn1ncnc1[C@H]1c2n[nH]c(=O)c3cc(F)cc(c23)N[C@@H]1c1ccc(F)cc1 [Talazoparib]
relative viability
Conditions | HT1080 | KHOS-240S | RD-ES | SW982 | SW1353
0.00017 µM | 1.06 | 0.9825 | 0.976 | 0.911 | 1.06
0.00051 µM | 1.05 | 1.01 | 0.95 | 0.906 | 1.09
0.00152 µM | 1.05 | 0.982 | 0.904 | 0.904 | 1.07
0.00457 µM | 1.037 | 0.969 | 0.844 | 0.862 | 1.03
0.01372 µM | 1 | 0.948 | 0.609 | 0.785 | 0.999
0.04115 µM | 0.955 | 0.921 | 0.191 | 0.729 | 0.919
0.1235 µM | 0.8497 | 0.872 | 0.0431 | 0.615 | 0.889
0.3704 µM | 0.797 | 0.824 | 0.0199 | 0.602 | 0.814
1.111 µM | 0.662 | 0.677 | 0.0127 | 0.499 | 0.753
3.333 µM | 0.577 | 0.524 | 0.00913 | 0.409 | 0.679
10 µM | 0.554 | 0.457 | 0.0143 | 0.361 | 0.633

CC(C)Oc1ccc(-c2nn([C@@H](C)c3oc4ccc(F)cc4c(=O)c3-c3cccc(F)c3)c3ncnc(N)c23)cc1F [Umbralisib]
relative viability
Conditions | HT1080 | KHOS-240S | RD-ES | SW982 | SW1353
0.00017 µM | 1.07 | 1.05 | 1 | 1.03 | 1.03
0.00051 µM | 1.09 | 1.08 | 1 | 1.078 | 1.03
0.00152 µM | 1.07 | 1.09 | 1.01 | 1.07 | 1.032
0.00457 µM | 1.09 | 1.08 | 1.001 | 1.06 | 1.06
0.01372 µM | 1.06 | 1.07 | 0.979 | 1.05 | 1.03
0.04115 µM | 1.069 | 1.06 | 1 | 1.067 | 1
0.1235 µM | 1.08 | 1.07 | 1.02 | 1.07 | 1.01
0.3704 µM | 1.07 | 1.06 | 1 | 1.079 | 0.959
1.111 µM | 1.05 | 1.03 | 0.994 | 1.063 | 0.97
3.333 µM | 1.05 | 1 | 1.01 | 1.08 | 0.946
10 µM | 0.955 | 0.909 | 1.02 | 1.12 | 0.8866

C[C@H](Nc1ncnc2nc[nH]c12)c1cc2cccc(Cl)c2c(=O)n1-c1ccccc1 [Duvelisib]
relative viability
Conditions | HT1080 | KHOS-240S | RD-ES | SW982 | SW1353
0.00017 µM | 1.11 | 1.05 | 0.991 | 1.04 | 1.074
0.00051 µM | 1.14 | 1.11 | 1.01 | 1.08 | 1.06
0.00152 µM | 1.13 | 1.08 | 1.04 | 1.09 | 1.03
0.00457 µM | 1.126 | 1.09 | 1.04 | 1.06 | 1.02
0.01372 µM | 1.08 | 1.06 | 1.02 | 1.08 | 1.02
0.04115 µM | 1.14 | 1.04 | 0.996 | 1.04 | 0.996
0.1235 µM | 1.124 | 1.05 | 0.956 | 1 | 0.915
0.3704 µM | 1.138 | 1.02 | 0.932 | 0.952 | 0.885
1.111 µM | 1.147 | 0.952 | 0.845 | 0.891 | 0.786
3.333 µM | 1.13 | 0.9 | 0.726 | 0.771 | 0.761
10 µM | 1.07 | 0.777 | 0.551 | 0.623 | 0.614
